The test system of one experiment is NCI-H2228. Nature of the experiment: CCK-8 tumor cell proliferation, NCI-H2228. The conditions noted are these: Homo sapiens, Table 15, ALK inhibitor based, read-out: IC50 inhibiting proliferation of tumor cells, NCI-H2228. Here is the method: (§1) The tumor cells used herein were cultured in a cell culture medium listed in table 4 at 37° C. in an incubator with 5% CO2. Prior to experimentation, all cells used were correctly identified by STR profiling, and tested negative for mycoplasma through routine screenings.
(§2) IC50 values of the compounds of the present disclosure (including the compounds in Tables 1 and 3, and compounds of examples) were measured using the Meilun Cell Counting Kit-8 kit from Dalian Meilun Biotech Co., Ltd. Assay details are as follows: tumor cells were seeded in a 96-well plate at a density listed in Table 5. After 24 h, 100 μL of the inoculated cells were treated with 0.5 μL of the compounds of the present disclosure (including the compounds in Tables 1 and 3, and compounds of examples) at 10 different successively decreasing concentrations (starting at the highest concentration of 10 μM; 5-fold serial dilutions). After the cells were treated with the compounds of the present disclosure for a period of time, the cell viability detection reagent was added to the culture medium for cell viability assessment according to the instructions provided with the CCK-8 kit. […] The growth inhibition of the compounds of the present disclosure on cells was plotted by Prism Graphpad software, and the IC50 values of the compounds of the present disclosure were calculated therefrom.

In another experiment the test system is NCI-H1975. Nature of the experiment: CCK-8 tumor cell proliferation, NCI-H1975. The format is cell-based, Human. The conditions noted are these: Homo sapiens; Table 15, ALK inhibitor based; NCI-H1975; read-out: IC50 inhibiting proliferation of tumor cells, NCI-H1975. Here is the method: as §1, §2
For another experiment, the system named is MDA-MB-231. Nature of the experiment: CCK-8 tumor cell proliferation, MDA-MB-231. The conditions noted are these: Homo sapiens; Table 15, ALK inhibitor based; MDA-MB-231; read-out: IC50 inhibiting proliferation of tumor cells, MDA-MB-231. The format is cell-based, Human. In outline: (§3)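 Ten-point titrations (10 μM highest, 5-fold steps) were applied to cells 24 h after seeding. After treatment at 37 °C, 5% CO2, cell viability was read with CCK-8 and IC50 values were computed from the resulting inhibition curves.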

The next experiment has as its system SR. Nature of the experiment: CCK-8 tumor cell proliferation, SR. The format is cell-based, Human. As to conditions: Homo sapiens; Table 15, ALK inhibitor based; SR; read-out: IC50 inhibiting proliferation of tumor cells, SR. In outline: as §3
The subject of the next experiment is Mino. Nature of the experiment: CCK-8 tumor cell proliferation, Mino. The format is cell-based, Human. As to conditions: Homo sapiens; Table 15, ALK inhibitor based; Mino; read-out: IC50 inhibiting proliferation of tumor cells, Mino. In outline: as §3
The test system of another experiment is HCC827. Nature of the experiment: CCK-8 tumor cell proliferation, HCC827. The conditions noted are these: Homo sapiens. Type of experiment: cell-based, Human.
For the next experiment, the system named is PC-9. Nature of the experiment: CCK-8 tumor cell proliferation, PC-9. As to conditions: Homo sapiens. The format is cell-based, Human.
Another experiment concerns Jurkat. Nature of the experiment: CCK-8 tumor cell proliferation, Jurkat. The conditions noted are these: Homo sapiens, Table 23, compared to Comparative Example compounds, read-out: Inhibitory activity (IC50, nM) against tumor cell proliferation, Jurkat. Type of experiment: cell-based, Human. In outline: as §3
In another experiment the test system is MM.1R. Nature of the experiment: CCK-8 tumor cell proliferation, MM.1R. The format is cell-based. As to conditions: Table 23, compared to Comparative Example compounds, read-out: Inhibitory activity (IC50, nM) against tumor cell proliferation, MM.1R. In outline:
as §3

A further experiment deals with CAL-62. Nature of the experiment: CCK-8 tumor cell proliferation, CAL-62. As to conditions: Homo sapiens; Table 23, compared to Comparative Example compounds; CAL-62; read-out: Inhibitory activity (IC50, nM) against tumor cell proliferation, CAL-62. Type of experiment: cell-based, Human. In outline: as §3
In a further experiment the test system is THP-1. Nature of the experiment: CCK-8 tumor cell proliferation, THP-1. The conditions noted are these: 72 h. Type of experiment: cell-based, Human. As for the experimental part:
as §1, §2

The next experiment deals with MV-4-11. Nature of the experiment: CCK-8 tumor cell proliferation, MV-4-11. Type of experiment: cell-based, Human. The conditions noted are these: Homo sapiens, MV4-11; Table 15, ALK inhibitor based; MV-4-11; read-out: IC50 inhibiting proliferation of tumor cells, MV-4-11. In outline: as §3
The subject of another experiment is CCRF-CEM. Nature of the experiment: CCK-8 tumor cell proliferation, CCRF-CEM. Type of experiment: cell-based, Human. Details: IC50 for inhibiting the proliferation of tumor cells, CCRF-CEM: scale not given here. The conditions noted are these: Table 11, designed based on EGFR inhibitors; 96 h. In outline: as §3
In another experiment the test system is Vcap. Nature of the experiment: CCK-8 tumor cell proliferation, Vcap. Type of experiment: cell-based, Human. The conditions noted are these: Table 11, designed based on EGFR inhibitors; 96 h. In outline:
as §3

Setting [1] is: Table 15, ALK inhibitor based, HCC827, read-out: IC50 inhibiting proliferation of tumor cells, HCC827.
The mark [2] stands for this setting: Table 15, ALK inhibitor based, PC-9, read-out: IC50 inhibiting proliferation of tumor cells, PC-9.

The record followed here is patent publication US20260199323A1, “LIGAND COMPOUNDS FOR E3 UBIQUITIN LIGASE, PROTEIN DEGRADERS DEVELOPED ON BASIS OF LIGAND COMPOUNDS, AND USES THEREOF” (GLUETACS THERAPEUTICS (SHANGHAI) CO., LTD., priority 2021, published 2026).

Read-outs that look alike come from different tables or passages of the source.

For `COc1cc(N2CCC(N3CCN(Cc4ccc5c(c4)CN(C4CCC(=O)NC4=O)C5=O)CC3)CC2)ccc1Nc1ncc(Cl)c(Nc2ccccc2P(C)(C)=O)n1` (stereo not shown) [GT-02811, 3-(5-((4-(1-(4-((5-chloro-4-((2-(dimethylphosphoryl)phenyl)amino)pyrimidin-2-yl)amino)-3-methoxyphenyl)piperidin-4-yl)piperazin-1-yl)methyl)-1-oxoisoindolin-2-yl)piperidine-2,6-dione], the IC50 in the experiment on NCI-H2228 was in the range of 1000 to 5000 nM; in the experiment on NCI-H1975, 100 to 500 nM.

Consider `CCc1cc2c(cc1N1CCC(N3CCN(Cc4ccc5c(c4)CN(C4CCC(=O)NC4=O)C5=O)CC3)CC1)C(C)(C)c1[nH]c3cc(C#N)ccc3c1C2=O` (stereo not shown) [GT-02972, 8-(4-(4-((2-(2,6-dioxopiperidin-3-yl)-1-oxoisoindolin-5-yl)methyl)piperazin-1-yl)piperidin-1-yl)-9-ethyl-6,6-dimethyl-11-oxo-6,11-dihydro-5H-benzo[b]carbazole-3-carbonitrile], for which the IC50 with MDA-MB-231 is 500 to 1000 nM; in the experiment on SR it was less than 50 nM; in the experiment on Mino, 500 to 1000 nM; with NCI-H2228, 500 to 1000 nM; with NCI-H1975 it was 500 to 1000 nM; in the experiment on HCC827 (setting [1]) it was 1000 to 5000 nM. The IC50 in the experiment on PC-9 (setting [2]) lay in the range of 500 to 1000 nM.

On to `Cc1cc(Nc2ncc(Cl)c(Nc3ccccc3S(=O)(=O)C(C)C)n2)c(OC(C)C)cc1C1CCN(Cc2ccc3c(c2)CN(C2CCC(=O)NC2=O)C3=O)CC1` (stereo not shown) [GT-02973, 3-(5-((4-(4-((5-chloro-4-((2-(isopropylsulfonyl)phenyl)amino)pyrimidin-2-yl)amino)-5-isopropoxy-2-methylphenyl)piperidin-1-yl)methyl)-1-oxoisoindolin-2-yl)piperidine-2,6-dione], for which the IC50 with MDA-MB-231 was 500 to 1000 nM; in the experiment with SR, less than 50 nM; in the experiment with NCI-H2228, 100 to 500 nM; with PC-9 (setting [2]) it was 500 to 1000 nM.

Take `COc1cc(N2CCC(NCc3ccc4c(c3)CN(C3CCC(=O)NC3=O)C4=O)CC2)ccc1Nc1ncc(Cl)c(Nc2ccccc2P(C)(C)=O)n1` (stereo not shown) [GT-03015, 3-(5-(((1-(4-((5-chloro-4-((2-(dimethylphosphoryl)phenyl)amino)pyrimidin-2-yl)amino)-3-methoxyphenyl)piperidin-4-yl)amino)methyl)-1-oxoisoindolin-2-yl)piperidine-2,6-dione]: the IC50 in the experiment with NCI-H2228 was in the range of 100 to 500 nM; in the experiment with NCI-H1975, 50 to 100 nM.

With `COc1cc(N2CCC(N(C)Cc3ccc4c(c3)CN(C3CCC(=O)NC3=O)C4=O)CC2)ccc1Nc1ncc(Cl)c(Nc2ccccc2P(C)(C)=O)n1` (stereo not shown) [GT-03319, 3-(5-(((1-(4-((5-chloro-4-((2-(dimethylphosphoryl)phenyl)amino)pyrimidin-2-yl)amino)-3-methoxyphenyl)piperidin-4-yl)(methyl)amino)methyl)-1-oxoisoindolin-2-yl)piperidine-2,6-dione], the IC50 is 50 to 100 nM in the experiment on MDA-MB-231; less than 50 nM in the experiment on SR; 1000 to 5000 nM with Jurkat; 100 to 500 nM in the experiment with MM.1R; 1000 to 5000 nM in the experiment on Mino; 50 to 100 nM in the experiment on NCI-H2228. The IC50 in the experiment on NCI-H1975 was less than 50 nM; in the experiment on CAL-62, less than 50 nM; in the experiment with HCC827 (setting [1]), 50 to 100 nM; in the experiment on PC-9 (setting [2]) it was 50 to 100 nM.

With `CCc1cc2c(cc1N1CCN(Cc3ccc4c(c3)CN(C3CCC(=O)NC3=O)C4=O)CC1)C(C)(C)c1[nH]c3cc(C#N)ccc3c1C2=O` (stereo not shown) [GT-03409, 8-(4-((2-(2,6-dioxopiperidin-3-yl)-1-oxoisoindolin-5-yl)methyl)piperazin-1-yl)-9-ethyl-6,6-dimethyl-11-oxo-6,11-dihydro-5H-benzo[b]carbazole-3-carbonitrile], the IC50 is 1000 to 5000 nM in the experiment on MDA-MB-231; less than 50 nM in the experiment with SR; 1000 to 5000 nM with NCI-H2228; 1000 to 5000 nM in the experiment with HCC827 (setting [1]); 1000 to 5000 nM with PC-9 (setting [2]).

On to `NC(=O)c1ccc(N2CCN(Cc3ccc4c(c3)CN(C3CCC(=O)NC3=O)C4=O)CC2)nc1-c1ccc(Oc2ccccc2)cc1` (stereo not shown) [GT-03636, 6-(4-((2-(2,6-dioxopiperidin-3-yl)-1-oxoisoindolin-5-yl)methyl)piperazin-1-yl)-2-(4-phenoxyphenyl)nicotinamide], for which the “IC50 for inhibiting the proliferation of tumor cells, THP-1” value with THP-1 (Table 7, designed based on BTK inhibitors) was “A+”.

For `CCc1cc2c(cc1N1CCC(N3CCN(Cc4cc(F)c5c(c4)CN(C4CCC(=O)NC4=O)C5=O)CC3)CC1)C(C)(C)c1[nH]c3cc(C#N)ccc3c1C2=O` (stereo not shown) [GT-03760, 8-(4-(4-((2-(2,6-dioxopiperidin-3-yl)-7-fluoro-1-oxoisoindolin-5-yl)methyl)piperazin-1-yl)piperidin-1-yl)-9-ethyl-6,6-dimethyl-11-oxo-6,11-dihydro-5H-benzo[b]carbazole-3-carbonitrile], the IC50 in the experiment with SR is less than 50 nM; in the experiment with Mino, 100 to 500 nM; in the experiment on NCI-H2228, 100 to 500 nM; with NCI-H1975 it was 50 to 100 nM; with MV-4-11, 500 to 1000 nM.

Regarding `O=C1CCC(N2Cc3cc(CN4CCC(N5CCN(c6ccc(-c7cc(F)c8c(c7)C(=O)N(C(C(=O)Nc7nccs7)c7ncn9c7CCC9)C8)cc6)CC5)C(F)(F)C4)ccc3C2=O)C(=O)N1` (stereo not shown) [GT-04459, 2-(6,7-dihydro-5H-pyrrolo[1,2-c]imidazol-1-yl)-2-(6-(4-(4-(1-((2-(2,6-dioxopiperidin-3-yl)-1-oxoisoindolin-5-yl)methyl)-3,3-difluoropiperidin-4-yl)piperazin-1-yl)phenyl)-4-fluoro-1-oxoisoindolin-2-yl)-N-(thiazol-2-yl)acetamide], the “IC50 for inhibiting the proliferation of tumor cells, THP-1” value with THP-1 (Table 11, designed based on EGFR inhibitors) was “A+”. In addition, the “IC50 for inhibiting the proliferation of tumor cells, CCRF-CEM” value in the experiment on CCRF-CEM is recorded as “A+”. For the same compound, in the experiment on Vcap, the “IC50 for inhibiting the proliferation of tumor cells, Vcap” value is reported as “A+”.

Consider `CCc1cc2c(cc1N1CCC(N3CCOCC3)CC1)C(C)(C)c1[nH]c3cc(C#N)ccc3c1C2=O` [alectinib, reference compound], for which the IC50 was 1000 to 5000 nM in the experiment with MDA-MB-231; less than 50 nM in the experiment with SR; 5000 to 10000 nM in the experiment with Mino; 1000 to 5000 nM in the experiment with NCI-H2228; 1000 to 5000 nM in the experiment with NCI-H1975; 100 to 500 nM with PC-9 (setting [2]).

For the compound `COc1cc(N2CCC(N3CCN(C)CC3)CC2)ccc1Nc1ncc(Cl)c(Nc2ccccc2P(C)(C)=O)n1` [brigatinib, reference compound], the IC50 with MDA-MB-231 is 500 to 1000 nM; in the experiment on SR, less than 50 nM; in the experiment with Mino, 5000 to 10000 nM; with NCI-H2228, 100 to 500 nM; in the experiment on NCI-H1975, 500 to 1000 nM; with HCC827 (HCC827, read-out: IC50 inhibiting proliferation of tumor cells, HCC827) it was 100 to 500 nM. For the same compound, in the experiment with PC-9 (PC-9, read-out: IC50 inhibiting proliferation of tumor cells, PC-9), the IC50 was in the range of 1000 to 5000 nM.
